target: 2019-nCoV 3CLpro protein (Severe acute respiratory syndrome coronavirus 2, UniProt P0DTD1); assay: 2019-nCoV 3CLpro protein activity, fluorescence method with fluorescent polypeptide substrate; assay type: biochemical; details: not given

Compared with `O=c1c2ccccc2[se]n1-c1ccc(S(=O)(=O)n2[se]c3ccccc3c2=O)cc1`, `O=c1c2ccccc2[se]n1CCCn1[se]c2ccccc2c1=O` is 11-fold lower in IC50: 1240 nM for the first, 115 nM for the second. The second is the more potent here.

Compared with `Cc1[nH]c(/C=C2\C(=O)Nc3c(F)cccc32)c(C)c1C(=O)OCCn1[se]c2ccccc2c1=O`, `O=c1c2ccccc2[se]n1CCCCn1[se]c2ccccc2c1=O` [drawing 188] is 15-fold lower in IC50: 1640 nM for the first, 111 nM for the second.

Going from `O=c1c2ccccc2[se]n1CCCCCn1[se]c2ccccc2c1=O` to `O=c1c2ccccc2[se]n1CCCCCCCCCCCCn1[se]c2ccccc2c1=O`, the IC50 falls from 86.2 nM to 35.6 nM (2.4-fold).

Compared with `O=c1c2cc(O)ccc2[se]n1CCCCn1[se]c2ccc(O)cc2c1=O`, `O=c1c2ccccc2[se]n1CCSSCCn1[se]c2ccccc2c1=O` is 35-fold higher in IC50: 41.5 nM for the first, 1460 nM for the second.

same assay, conditions: read-out: IC50 (converted)

`O=c1c2ccccc2[se]n1CCn1[se]c2ccccc2c1=O` showed an IC50 of 1230 nM.

system: bleomycin-induced mouse lung disease model; assay: Lung and spleen coefficients, 24-h modeling; assay type: in vivo, C57 mice; details: 90 mg/kg, effect better than that of Dex
Method: Animals of 24-h modeling were randomly divided into 5 groups according to the table below, 3 animals per control group and 5 animals per test group.
Drug administration began 24 h or 7 d after modeling. […] The day of the first administration was counted as D1, the next day as D2, and so forth. The normal groups and Model groups were given 200 µL of normal saline daily by gavage administration.
Method: after being euthanized, the animals were dissected, and the heart, liver, spleen, lung and kidney were weighed.
In this experiment, 105 C57 mice were randomly selected and subjected to organ drip administration of a single dose of bleomycin at 2.5 mg/kg for 24 h or 7 d for induction. After 7 days of induction, 3 model mice were randomly selected and dissected to determine whether the modeling was successful. After modeling, the survival of the mice was recorded. The living states of the mice were observed and their body weight was measured at a fixed time.
A normal control group comprised 3 mice.

With `O=c1c2ccccc2[se]n1CCCCn1[se]c2ccccc2c1=O` [BS1801] the “Effect on lung coefficient (in words)” value was “significantly reduce increases in the lung coefficient”.
